Measurements from patent US20250129021A1, “SMALL MOLECULE PROTEIN SYNTHESIS MODULATORS” (Interdict Bio, Inc., priority 2023, published 2025).

Experiments:
Format in all cases: biochemical
CCND1 = assay: In vitro transcription-translation (IVTT) assay, CCND1 reporter; conditions: IVTT, HeLa S3 lysate, 2 hrs at 30° C.
Outline: (§1)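 Reporter: mCherry, P2A, then 3×FLAG-target peptide-sfGFP fusion, IRES-initiated; HeLa S3 lysate IVTT; cpd dilutions 30 μM−0.1 μM half-log in 100% DMSO (dilution-plate conc); DNA added last; 2 h, 30° C; PBS quench.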

CCNTB1 = assay: In vitro transcription-translation (IVTT) assay, CCNTB1 reporter; conditions: HeLa S3 lysate, 2 hrs at 30° C.
Outline: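 IC50 fitted from the sfGFP/mCherry fluorescence ratio, normalized to no-drug control after no-DNA background subtraction. Reactions ran 2 h at 30° C in HeLa S3 cell lysate with reporter plasmid DNA and half-log compound titrations (30 μM−0.1 μM, in DMSO).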

MYC = assay: In vitro transcription-translation (IVTT) assay, MYC reporter; conditions: IVTT assay, HeLa S3 lysate, MYC reporter, normalized sfGFP/mCherry ratio; half-log dilutions 30 μM-0.1 μM, 2 hrs at 30° C.
Outline: as §1

CCNE1 = assay: In vitro transcription-translation (IVTT) assay, CCNE1 reporter; conditions: HeLa S3 lysate, 2 hrs at 30° C.
Protocol: Each preparation takes 8 cell pellets (4 ml packed volume each, approximately 1.0×10^9 cells per pellet). Thaw cell pellets from −80° C. on ice for 90 mins. Lay pellets horizontally on top of the ice and rotate every 30 mins to ensure even thawing. Once thawed, add 4 mL of cold lysis buffer to each pellet, and using a serological pipet, gently pipet up and down to break up clumps. Incubate resuspended cells in ice for an additional 30 mins (plunged into ice). During 30 min incubation, rinse and RNase-zap (Ambion) glass dounces (use loose pestle “A”), gently dry and place on ice until needed. Prepare RNase-free Eppendorf tubes for spinning and for batch storage. Add batch labels to 1.5-1.7 mL RNase-free microcentrifuge tubes (labeling scheme below). Each batch will have an extra 1.5-1.7 mL RNase-free microcentrifuge tube for 40 μL of lysate, label the top of this tube (labeling scheme below). After 30 min incubation, transfer all 8 mL of cell pellet to dounce. Cell lysis is complete after douncing 100 times. Aliquot cell lysis into 1.5-1.7 mL temporary-microcentrifuge tubes. Place tubes in centrifuge with “fins” out, and spin at 1,200×g for 5 mins. After the first spin use a 1 mL pipet to resuspend each tube and repeat spin. This acts as an additional lysis step, is more vigorous and increases lysate yield. During second spin get liquid N2 and a fresh conical tube on ice. After spin is complete, transfer supernatant (lysate) from microcentrifuge tubes into the 50 mL conical tube and keep on ice. Repeat steps 10-14 for all other cell pellets until completed. Once all cell lysate has been transferred to the 50 mL conical tube pipet to mix so the solution is homogenous. Transfer 1 mL of lysate into batch-labeled microcentrifuge tubes and flash freeze in liquid nitrogen. Be sure to pipet up and down to mix throughout transfer step. Place all tubes in the […] for long-term storage.
In vitro transcription-translation assay setup: Each assay includes a master mix containing lysate and shared components, a 96-well plate containing compound titrations for testing, a 96-well DNA plate with reporter constructs to be tested, 96-well skirted PCR plates, and 96-well flat-bottom, black, fluorescent assay plates. Reaction materials setup: (A) Master mix—15 mL conical tube (3 mL of HeLa S3 Lysate described above; 0.6 mL of ThermoFisher Accessory Proteins (#88882); 1.2 ml of ThermoFisher Reaction Mix (#88882); 0.54 mL of nuclease-free Water); (B) 96-Well Master Mix+Compound Plate (Half-log dilutions (30 μM−0.1 μM) of 4 compounds of interest are prepared in 100% DMSO); 96-Well DNA Plate (Five DNA constructs are plated into single columns within the plate. Row 1 of the column contains nuclease free H2O, all other wells contain 110 ng/μL plasmid DNA). Reactions are started by mixing 155 μL of master mix and 3.5 μL of compound serial dilutions, then 9.1 μL of master mix+compound mixture is aliquoted across 5 96-well plates. Reactions begin with final addition of 2 μL of DNA for a 11.1 μL reaction volume in each well. The entire plate is sealed, and incubated for 2 hrs at 30° C. After 2 hrs, quench the assay using 45 μL of PBS, and transfer 50 μL to a flat-bottom black microplate Quantify the sfGFP and mCherry signals from each well on each plate, taking 3 reads of each plate, and perform data analysis below.
In vitro transcription-translation assay data analysis: Each plate is read three times in channels for both sfGFP and mCherry signals. The average signal across these 3 reads is then calculated for further analysis. Control wells containing no DNA reporter are subtracted from reporter wells in the same column to remove auto-fluorescence of the lysate. Then, the ratio of sfGFP/mCherry is calculated per well, and these ratios are averaged across the triplicate experiments on the same plate. Finally, the ratio of each titration concentration is normalized to the no drug control to create the normalized stalling metric. […]

Structure (SMILES) | IC50 (CCND1) [µM] | IC50 (CCNTB1) [µM] | IC50 (MYC) [µM] | IC50 (CCNE1) [µM]
CNC(=O)c1ccc(CNC(=O)O[C@@H]2[C@@H](O)CN[C@@H]2Cc2ccc(OC)cc2)cc1 [V188305, (2R,3S,4S)-4-hydroxy-2-[(4-methoxyphenyl)methyl]pyrrolidin-3-yl N-{[4-(methylcarbamoyl)phenyl]methyl}carbamate] | < 10 | < 10 | < 10 | < 10
COc1ccc(C[C@H]2NC[C@H](O)[C@H]2OC(=O)NCc2ccc(S(N)(=O)=O)cc2)cc1 [V188304, (2R,3S,4S)-4-hydroxy-2-[(4-methoxyphenyl)methyl]pyrrolidin-3-yl N-[(4-sulfamoylphenyl)methyl]carbamate] | < 10 | < 10 | < 10 | < 10
COc1ccc(C[C@H]2NC[C@H](O)[C@H]2OC(=O)NC[C@H]2CCNC2)cc1F [V188076, (2R,3S,4S)-2-[(3-fluoro-4-methoxyphenyl)methyl]-4-hydroxypyrrolidin-3-yl N-[(3S)-pyrrolidin-3-ylmethyl]carbamate] | 20 to 30 | < 10 | > 30 | 10 to 20
COc1ccc(C[C@H]2NC[C@H](O)[C@H]2OC(=O)NCCO[C@@H]2CCNC2)cc1 [V188071, (2R,3S,4S)-4-hydroxy-2-[(4-methoxyphenyl)methyl]pyrrolidin-3-yl N-{2-[(3R)-pyrrolidin-3-yloxy]ethyl}carbamate] | 10 to 20 | < 10 | 10 to 20 | < 10
COc1ccc(C[C@H]2NC[C@H](O)[C@H]2OC(=O)NCC(F)(F)CO)cc1 [V188164, (2R,3S,4S)-4-hydroxy-2-[(4-methoxyphenyl)methyl]pyrrolidin-3-yl N-(2,2-difluoro-3-hydroxypropyl)carbamate] | > 30 | 10 to 20 | > 30 | 20 to 30
COc1ccc(C[C@H]2NC[C@H](O)[C@H]2OC(=O)NCCc2ccc(S(=O)(=O)F)cc2)cc1 [V188175, (2R,3S,4S)-4-hydroxy-2-[(4-methoxyphenyl)methyl]pyrrolidin-3-yl N-{2-[4-(fluorosulfonyl)phenyl]ethyl}carbamate] | > 30 | < 10 | 10 to 20 | 10 to 20
COc1ccc(C[C@H]2NC[C@H](O)[C@H]2OC(=O)NCC2CCS(=O)(=O)C2)cc1 (stereo partly drawn) [V188154, (2R,3S,4S)-4-hydroxy-2-[(4-methoxyphenyl)methyl]pyrrolidin-3-yl N-[(1,1-dioxo-1lambda6-thiolan-3-yl)methyl]carbamate] | < 10 | < 10 | < 10 | < 10
COc1ccc(C[C@H]2NC[C@H](O)[C@H]2OC(=O)NC[C@H]2C[C@@H](N)C2)cc1 [V188147, (2R,3S,4S)-4-hydroxy-2-[(4-methoxyphenyl)methyl]pyrrolidin-3-yl N-{[(1s,3s)-3-aminocyclobutyl]methyl}carbamate] | 10 to 20 | < 10 | < 10 | < 10
O=C(NCc1ccccc1)O[C@@H]1[C@@H](O)CN[C@@H]1Cc1ccc(Cl)cc1 [V188203, (2R,3S,4S)-2-[(4-chlorophenyl)methyl]-4-hydroxypyrrolidin-3-yl N-benzylcarbamate] | 10 to 20 | < 10 | 10 to 20 | < 10
O=C(NCc1cccc(F)c1)O[C@@H]1[C@@H](O)CN[C@@H]1Cc1ccc(Cl)cc1 [V188270, (2R,3S,4S)-2-[(4-chlorophenyl)methyl]-4-hydroxypyrrolidin-3-yl N-[(3-fluorophenyl)methyl]carbamate] | 10 to 20 | < 10 | < 10 | < 10
COc1ccc(C[C@H]2NC[C@H](O)[C@H]2OC(=O)NCc2ccnc(N3CCCC3)c2)cc1 [V188226, (2R,3S,4S)-4-hydroxy-2-[(4-methoxyphenyl)methyl]pyrrolidin-3-yl N-{[2-(pyrrolidin-1-yl)pyridin-4-yl]methyl}carbamate] | < 10 | < 10 | < 10 | < 10
O=C(NC[C@H]1CCNC1)O[C@@H]1[C@@H](O)CN[C@@H]1Cc1ccc(Cl)cc1 [V188188, (2R,3S,4S)-2-[(4-chlorophenyl)methyl]-4-hydroxypyrrolidin-3-yl N-[(3S)-pyrrolidin-3-ylmethyl]carbamate] | > 30 | < 10 | > 30 | < 10
COc1ccc(C[C@H]2NC[C@H](O)[C@H]2OC(=O)NCCn2ccnc2[N+](=O)[O-])cc1 [V188085, (2R,3S,4S)-4-hydroxy-2-[(4-methoxyphenyl)methyl]pyrrolidin-3-yl N-[2-(2-nitroimidazol-1-yl)ethyl]carbamate] | 20 to 30 | < 10 | 10 to 20 | < 10
COc1ccc(C[C@H]2NC[C@H](O)[C@H]2OC(=O)NCc2ccc(-c3ncc[nH]3)cc2)cc1 [V188144, (2R,3S,4S)-4-hydroxy-2-[(4-methoxyphenyl)methyl]pyrrolidin-3-yl N-{[4-(1H-imidazol-2-yl)phenyl]methyl}carbamate] | < 10 | < 10 | < 10 | < 10
O=C(NC[C@@H]1CCOC1)O[C@@H]1[C@@H](O)CN[C@@H]1Cc1ccc(Cl)cc1 [V188288, (2R,3S,4S)-2-[(4-chlorophenyl)methyl]-4-hydroxypyrrolidin-3-yl N-[(3S)-oxolan-3-ylmethyl]carbamate] | 20 to 30 | < 10 | 10 to 20 | < 10
NS(=O)(=O)c1ccc(CNC(=O)O[C@@H]2[C@@H](O)CN[C@@H]2Cc2ccc(Cl)cc2)cc1 [V188291, (2R,3S,4S)-2-[(4-chlorophenyl)methyl]-4-hydroxypyrrolidin-3-yl N-[(4-sulfamoylphenyl)methyl]carbamate] | < 10 | < 10 | 10 to 20 | < 10
COc1ccc(C[C@H]2NC[C@H](O)[C@H]2OC(=O)NCCC23CCCN2CCC3)cc1 [V188135, (2R,3S,4S)-4-hydroxy-2-[(4-methoxyphenyl)methyl]pyrrolidin-3-yl N-[2-(hexahydropyrrolizin-7a-yl)ethyl]carbamate] | 20 to 30 | 10 to 20 | 10 to 20 | 20 to 30
COc1ccc(C[C@H]2NC[C@H](O)[C@H]2OC(=O)NCc2ccc(=O)[nH]c2)cc1 [V188206, (2R,3S,4S)-4-hydroxy-2-[(4-methoxyphenyl)methyl]pyrrolidin-3-yl N-[(6-oxo-1H-pyridin-3-yl)methyl]carbamate] | < 10 | < 10 | < 10 | < 10
COc1ccc(C[C@H]2NC[C@H](O)[C@H]2OC(=O)NCC23CNC(C2)C3)cc1 [V188152, (2R,3S,4S)-4-hydroxy-2-[(4-methoxyphenyl)methyl]pyrrolidin-3-yl N-{2-azabicyclo[2.1.1]hexan-4-ylmethyl}carbamate] | > 30 | < 10 | – | 10 to 20
